Experiment [1] deals with cortisol response. Conditions: 800 mg, cited from earlier work.
The subject of experiment [2] is healthy male subjects. Nature of the experiment: Plasma testosterone response to moderate intensity cycle ergometer exercise after 10 days of oral PS or placebo (double-blind crossover). The class given is in vivo, human. The procedure: The purpose of the current study was to investigate the efficacy of short-term S-PS supplementation, at dosage levels less than the currently established dose, on testosterone response to acute moderate-intensity exercise. This study aimed to examine the influence of short-term supplementation with a moderate dose of PS (600 mg per day) on plasma concentrations of testosterone before, during, and following moderate intensity exercise in healthy males. 10 healthy male subjects participated in the study. Each subject was assigned to ingest 600 mg PS or placebo per day for 10 days using a double-blind, placebo-controlled, crossover design. Serial venous blood samples were taken at rest, after a 15 minute moderate intensity exercise protocol on a cycle ergometer that consisted of five 3-minute incremental stages beginning at 65% and ending at 85% VO2max, and during a 65 minute passive recovery. Plasma samples were assessed for testosterone for treatment (PS or placebo). PS increased AUC for testosterone to cortisol ratio (184±5%) when compared to placebo (p<0.05).
Subjects. Ten healthy males participated in this study. All subjects in this investigation participated in a familiarization session. During the familiarization session, subjects were informed as to the experimental procedures, completed a personal/medical history form, and signed informed consent statements in adherence with the human subject's guidelines of the American College of Sports Medicine. No subject in this trial was a vegetarian with all subjects reportedly consuming meat in their daily diet.
Each participant completed three testing sessions during the 21-day study. Participants performed a graded exercise test (starting at 50 W, increasing by 50 W increments every 2 minutes) on a cycle ergometer (Gary Fisher Tarpon OS Series Mountain Bike connected to a Computrainer Pro model 8002 RacerMate EBRA™ Approved System with software version 1.1.59) to assess maximal oxygen consumption (VO2max), and were scheduled for testing sessions 2 and 3 (day 11 and day 21). VO2max was determined using a Sensormedic V229 Metabolic System that was calibrated following the recommended technical guidelines (Sensormedics Corporation, Yorba Linda, Calif.). Upon completion of the VO2max test the participants were randomly assigned to one of two groups and received a 10-day supply of either the placebo or PS (600 mg per day of soy-derived PS).
The second and third exercise sessions were performed to determine testosterone responses to exercise induced stress at rest, during exercise, and recovery. On the tenth day of supplementation the participants ingested the last dose of the assigned substance (PS or placebo) and reported to the laboratory at 7 am after an overnight fast. Venous blood samples were taken on arrival (−30) and 30 minutes later, which was just prior to the start of exercise (0). Following the 30 minute rest period, the participants were asked to begin exercising on the cycle ergometer at an exercise intensity calculated to elicit 65% of VO2max. The intensity of exercise was increased automatically by 5% every 3-minute increment until the intensity was at 85% of VO2max (five-three minute stages). After cycling for a total of 15 minutes, the subject stopped exercising and a post-exercise venous blood sample was taken immediately. […]

Experiment [3] relates to cortisol response. The following applies: cited from earlier work.
Experiment [4] concerns older males. Description: Effect of PS supplementation on serum and free testosterone of older males with exercise regimens. The class given is in vivo, human. The procedure: A. subject three, a physically active non smoking […] who took no prescription drugs or alcohol was the first subject. Starting on Day 1, the person consumed 600 mg of Phosphatidylserine (Chemi Nutra, Inc., White Bear Lake, Minn.) for 11 days accompanied by the following cardio and resistance workouts: • Day 1: lifted weights for 1.5 hours and intense cardio exercise, 12 minutes. • Day 2: intense cardio exercise for 28 minutes. • Day 3: easy pace walk, 1.5 mile. • Day 4: intense cardio exercise for 35 minutes. • Day 5: easy pace walk, 2 miles. • Day 6: lifted weights for 1.5 hours. • Days 7 and 8: rest, no exercise. • Day 9 intense cardio exercise, 35 minutes and 12 miles easy pace walk • Day 10: lifted weights 1.5 hours. Blood was drawn at 8:00 am on the first and eleventh day of the study and analyzed for serum and free testosterone by Life Extension National Diagnostics, Inc., Ft. Lauderdale, Fla. Serum testosterone rose from 575 nanograms per decilitier to 665 nanograms per deciliter, a 16% increase. B. The second subject (RJ) is a person. Starting on day 1, RJ consumed 400 mg PS daily for 11 days, accompanied by the following exercise regimens: • Day 2: bicycle ergometer for 30 minutes and elliptical trainer for 30 minutes. • Day 3: tennis singles match for 1.5 hours. • Day 4: treadmill 15 minutes and upper body resistance exercise for 1 hour. • Day 5: elliptical trainer for 45 minutes and resistance exercise for 30 minutes. • Day 6: rest. • Day 7: treadmill for 30 minutes; elliptical trainer for 30 minutes; resistance exercise for 30 minutes. • Day 8: rest. • Day 9: resistance exercise 1.5 hours. • Day 10 elliptical trainer for 1 hour. • Day 11: upper body resistance exercise for 30 minutes. Serum testosterone levels and free testosterone levels were measured on days 1 and 12. Serum testosterone increased from 290 nanograms/deciliter to 437 nanograms/deciliter, an increase of 51%. Free testosterone increased from 11.4 picograms/ml to 18.0 picograms/ml, an increase of 58%. C. The third subject is person one. The person consumed 300 mg PS (Chemi Nutra) daily for 11 days accompanied by a cardio and resistance training workout on days 2-11: • Day 2: 9 miles cycling for 35 minutes; 4 miles running for 40 minutes; 9 miles cycling for 40 minutes. • Day 3: tennis singles match for 1.5 hours. • Day 4: 9 miles cycling for 45 minutes; whole body resistance training for 1 hour; 9 miles cycling for 50 minutes. • Day 5: 9 miles cycling for 30 minutes; 5 miles running for 45 minutes; 9 miles cycling for 30 minutes • Day 6: rest. • Day 7: rest. • Day 8: resistance training 1.5 hours. • Day 9: 9 miles cycling for 50 minutes; upper body resistance exercise 1 hour; 9 miles cycling for 50 minutes. • Day 10: high-intensity resistance training for 30 minutes. • Day 11: 5 miles running for 50 minutes. Serum testosterone levels and free testosterone levels were measured on days 1 and 12. Serum testosterone increased from 734 nanograms/deciliter to 781 nanograms/deciliter, an increase of 6.4%. Free testosterone increased from 22.1 picograms/ml to 27.0 picograms/ml, an increase of 22%.

Where [5] appears, read: subject one, 300 mg daily for 11 days.
[6] abbreviates: subject two, 400 mg daily for 11 days.

Consider phosphatidylserine [PS], for which the “reduction of cortisol response to intensive resistance training” value in experiment [1] is recorded as 20%. In addition, the “effect on testosterone levels” value in experiment [1] (intensive resistance training) is “no effect”. Besides, the “increase of AUC for testosterone to cortisol ratio compared to placebo” value in experiment [2] (600 mg PS per day oral for 10 days, 10 healthy males, p<0.05) is 184±5%. For the same substance, the “increase of plasma testosterone concentrations compared with placebo” value in experiment [2] (600 mg/day S-PS for 10 days) amounted to 51±6%. Also, the “plasma testosterone levels at the beginning of the exercise compared to placebo” value in experiment [2] (600 mg/day S-PS for 10 days) is on record as “higher plasma testosterone levels”. Further, the “increase of testosterone area under the curve versus placebo” value in experiment [2] (600 mg/day S-PS for 10 days, FIG. 2, p=0.02) worked out at 37±5%. In experiment [2] (600 mg/day S-PS for 10 days, plasma, placebo 5.5±0.3, P (treatment) 0.13), the “mean peak concentration of testosterone” value turned out to be 8.3 ± 1.7 ng/mL. The “cortisol response compared to placebo” value in experiment [3] (400 mg) was “no significant result”. Moreover, in experiment [3] (800 mg supplementation), the “lowering of cortisol response” value is 30%. Besides, the “increase of free testosterone” value stood at 22% in experiment [4] (setting [5]) and 58% in experiment [4] (setting [6]). The “increase of serum testosterone” value in experiment [4] (setting [5]) is listed as 6.4%; in experiment [4] (subject three, 600 mg for 11 days) it was 16%; in experiment [4] (setting [6]), 51%. For the same substance, the “free testosterone after treatment” value came out at 27.0 picograms/ml in experiment [4] (subject one, 300 mg daily for 11 days, day 12, day 1 22.1) and 18.0 picograms/ml in experiment [4] (subject two, 400 mg daily for 11 days, day 12, day 1 11.4). Further, the “serum testosterone after treatment” value is given as 781 nanograms/deciliter in experiment [4] (subject one, 300 mg daily for 11 days, day 12, day 1 734); 665 nanograms per deciliter in experiment [4] (subject three, 600 mg for 11 days, eleventh day, first day 575); 437 nanograms/deciliter in experiment [4] (subject two, 400 mg daily for 11 days, day 12, day 1 290).

The values are drawn from patent US8124594B2, “Methods using phosphatidylserine, lysophosphatidylserine, and/or salts thereof to increase testosterone levels” (Chemi Nutra, LLC, priority 2007, dated 2012).
